Results from US20200306210A1 (ZOGENIX INTERNATIONAL LIMITED, priority 2017, published 2020).
Structures can show the parent of a compound that is named as a salt.

How the values were obtained:
[1] = test system: children and young adults with Dravet syndrome; test: Study 1: Clinical Global Impression of Improvement (CGI-I); assay type: in vivo, Human
Experimental: CGI-S and CGI-I ratings were made by clinical investigators and parent/caregivers in a series of phase III trials of fenfluramine. CGI changes were measured in two randomized, controlled trials with results reported herein. Study 1 was conducted as described in Example 1 and CGI ratings were made according to a set schedule of visits made to the clinic. Tables of results and bar graphs of the statistical analyses of CGI ratings for Study 1 at visit twelve (day 113) are provided in FIGS. 1-4. […] Similar results were obtained with investigator CGI-I rating.
In Study 1, subjects were assessed using Clinical Global Impression (CGI), allowing the parent/caregiver and principal investigator to assess improvement, as well as the Quality of Life in Childhood Epilepsy (QOLCE) Scale and the Pediatric Quality of Life Inventory (PedsQL) to measure changes in the quality of life of the subject. Comparisons between treatment groups were made using Wilcoxon rank sum tests.
The CGI scale measures the change in the subject's clinical status from a specific point in time, i.e., the Baseline Period (and also referred to as the CGI-S, an initial ranking of severity). The CGI rating scale permits a global evaluation of the subject's improvement over time.

[2] = test system: children and young adults with Dravet syndrome; test: Study 1: randomized, double-blind, placebo-controlled trial of ZX008, monthly convulsive seizure frequency (MCSF); assay type: in vivo, Human; details: for Longest seizure free interval, estimate of median treatment difference: Hodges-Lehman estimator; for Greater reduction in mean MCSF compared with placebo: 14-week treatment period; for Near-seizure freedom (0 or a single seizure during 14-week Treatment Period), % of subjects / Near-seizure freedom (0 or a single seizure during 14-week Treatment Period), number of subjects: post-hoc analysis
Excerpt: Human patients, age 2 to 18 years, inclusive, having a documented medical history to support a clinical diagnosis of Dravet syndrome and a history of seizures (either generalized tonic-clonic or unilateral clonic or bilateral clonic, and prolonged) were recruited, and selected for inclusion in the study according to criteria comprising a combination of age, physical and psychological characteristics, and (optionally) resistance to treatment with conventional therapies. Included subjects were assessed over the course of this 22-week study. The study protocols were reviewed and approved by the institutional review board or ethics committee for each study site before any study activation at the site. All patients or their legal representatives signed informed consent/assent prior to enrolling in the trial.
Subjects had ≥4 convulsive seizures (tonic, tonic atonic, tonic-clonic, clonic) per 4-week period for past 12 weeks prior to screening, by parent/guardian report to investigator or investigator medical notes.
Potential subjects enrolled in a 6-week baseline to establish seizure frequency and determine eligibility. Seizures were documented by parents or caregivers in an electronic study diary as to date, time of day, duration, and seizure type. To qualify for randomization each subject must have had ≥6 convulsive seizures during the baseline period with ≥2 in the first 3 weeks and ≥2 in the last 3 weeks. For this study convulsive seizures were defined as hemiclonic, tonic, clonic, tonic-atonic, generalized tonic-clonic, and focal with clear observable motor signs. The six-week Baseline Period started with a screening visit followed by an observation period where subjects were assessed for baseline seizure activity based on recordings of daily seizure activity entered into the diary.
Randomization was double-blind and stratified by age group (<6 years, ≥6 years) across treatment groups. A placebo solution, identical in appearance and taste, was also provided. Daily doses were administered with food in 2 equal doses, one in the morning and one in the evening approximately 12 hours apart. […] The other groups underwent dummy titrations to maintain the blind. Patients were maintained on their final dose for an additional 12 weeks (the Maintenance Period). At the conclusion of the Treatment Period (Titration plus Maintenance), eligible patients electing to continue in an optional open-label extension (OLE) study underwent a 2-week transition period, whereas patients exiting the study underwent a 2-week taper and follow-up.
ZX008 was supplied as an oral solution in concentrations of 1.25, 2.5, and 5 mg/mL. Subjects will be randomized to receive 1 of 2 doses of ZX008 (0.2 mg/kg/day, 0.8 mg/kg/day; up to 30 mg/day) or placebo. Study medication will be administered twice a day (BID) in equally divided doses with food. To the placebo group, as a negative control, an oral solution not containing fenfluramine was administered.
Monthly convulsive seizure frequency (MCSF) was expressed per 28 days. The primary end point was the change in mean MCSF) between the baseline period and the combined titration and maintenance periods in subjects treated with ZX008 0.8 mg/kg/day compared with the group treated with placebo. Five key secondary end points were pre-specified: the comparison of the ZX008 0.2 mg/kg/day group with placebo for the change in MCSF between baseline and the combined titration and maintenance periods, comparison of both ZX008 groups independently with placebo on the proportion of subjects who achieved a ≥50% reduction from baseline in MCSF and the comparison of both ZX008 groups with placebo on the longest seizure-free interval observed in each group. A serial gatekeeping procedure was used to maintain the simultaneous type 1 error rate at α=0.05 across the analyses of the primary and 5 key secondary end points. […]

In the case of CCNC(C)Cc1cccc(C(F)(F)F)c1 (centres unmarked) [ZX008, fenfluramine hydrochloride], the “CGI-I Investigator rating 'very much improved' or 'much improved', %” value ([1]; 0.2 mg/kg/day, n = 39) is reported as “(41.0%)”, the “CGI-I Parent/caregiver rating 'very much improved' or 'much improved', %” value ([1]; 0.2 mg/kg/day, n = 39) is reported as “(41.0%)” and the “CGI-I Investigator rating 'very much improved' or 'much improved', %” value ([1]; 0.8 mg/kg/day, n = 40) is reported as “(55.0%)”. The “CGI-I Parent/caregiver rating 'very much improved' or 'much improved', %” value ([1]; 0.8 mg/kg/day, n = 40) was “(55.0%)”, the “Longest seizure free interval, estimate of median treatment difference” value ([2]; 0.2 mg/kg/day vs placebo) was -5.0 days and the “Greater reduction in mean MCSF compared with placebo” value ([2]; 0.2 mg/kg/day) was 33.7%. For the same compound, the “Reduction from baseline in mean MCSF” value ([2]; 0.2 mg/kg/day, after 6 weeks of treatment) was −26.3%, the “Reduction from baseline in mean MCSF” value ([2]; 0.2 mg/kg/day, after 10 weeks of treatment) was −22.4% and the “Reduction from baseline in mean MCSF” value ([2]; 0.2 mg/kg/day, after 14 weeks of treatment) was −22.2%. For the same compound, the “100% reduction (seizure freedom during entire 14-week treatment period), n of subjects” value ([2]; 0.2 mg/kg/day, n = 39) was 3, the “Longest seizure free interval, median” value ([2]; 0.2 mg/kg/day, n = 39) was 14 days and the “Percent change in convulsive seizure frequency per 28 days, LS means ± SE” value ([2]; 0.2 mg/kg/day, n = 39) was −22.50 ± 9.28%. The “Percent change in convulsive seizure frequency per 28 days, median” value ([2]; 0.2 mg/kg/day, n = 39) was −37.6%, the “Responder analysis ≥25% reduction in MCSF, % of subjects” value ([2]; 0.2 mg/kg/day, n = 39) was “(61.5%)” and the “Responder analysis ≥25% reduction in MCSF, OR vs placebo” value ([2]; 0.2 mg/kg/day, n = 39) was 3.80. The “Responder analysis ≥25% reduction in MCSF, n of subjects” value ([2]; 0.2 mg/kg/day, n = 39) was 24, the “Responder analysis ≥50% reduction in MCSF, % of subjects” value ([2]; 0.2 mg/kg/day, n = 39) was “(41.0%)” and the “Responder analysis ≥50% reduction in MCSF, OR vs placebo” value ([2]; 0.2 mg/kg/day, n = 39) was 10.10. The “Responder analysis ≥50% reduction in MCSF, n of subjects” value ([2]; 0.2 mg/kg/day, n = 39) was 16, the “Responder analysis ≥75% reduction in MCSF, % of subjects” value ([2]; 0.2 mg/kg/day, n = 39) was “(20.5%)” and the “Responder analysis ≥75% reduction in MCSF, OR vs placebo” value ([2]; 0.2 mg/kg/day, n = 39) was 10.46. For the same compound, the “Responder analysis ≥75% reduction in MCSF, n of subjects” value ([2]; 0.2 mg/kg/day, n = 39) was 8, the “Change in convulsive seizure frequency per 28 days, % Difference from placebo, LS mean (key secondary endpoint)” value ([2]; 0.2 mg/kg/day, n = 39, baseline vs titration + maintenance) was −33.74% and the “Near-seizure freedom (0 or a single seizure during 14-week Treatment Period), % of subjects” value ([2]; 0.2 mg/kg/day) was 12.8%. For the same compound, the “Near-seizure freedom (0 or a single seizure during 14-week Treatment Period), number of subjects” value ([2]; 0.2 mg/kg/day) was 5, the “Longest seizure free interval, estimate of median treatment difference” value ([2]; 0.8 mg/kg/day vs placebo) was -11.5 days and the “Greater reduction in mean MCSF compared with placebo” value ([2]; 0.8 mg/kg/day) was 63.9%. For the same compound, the “Reduction from baseline in mean MCSF” value ([2]; 0.8 mg/kg/day, after 6 weeks of treatment) was −62.4%, the “Reduction from baseline in mean MCSF” value ([2]; 0.8 mg/kg/day, after 10 weeks of treatment) was −61.8% and the “Reduction from baseline in mean MCSF” value ([2]; 0.8 mg/kg/day, after 14 weeks of treatment) was −62.2%. The “100% reduction (seizure freedom during entire 14-week treatment period), n of subjects” value ([2]; 0.8 mg/kg/day, n = 40) was 3, the “Longest seizure free interval, median” value ([2]; 0.8 mg/kg/day, n = 40) was 20.5 days and the “Percent change in convulsive seizure frequency per 28 days, median” value ([2]; 0.8 mg/kg/day, n = 40) was −72.4%. For the same compound, the “Responder analysis ≥25% reduction in MCSF, % of subjects” value ([2]; 0.8 mg/kg/day, n = 40) was “(92.5%)”, the “Responder analysis ≥25% reduction in MCSF, OR vs placebo” value ([2]; 0.8 mg/kg/day, n = 40) was 42.91 and the “Responder analysis ≥25% reduction in MCSF, n of subjects” value ([2]; 0.8 mg/kg/day, n = 40) was 37. For the same compound, the “Responder analysis ≥50% reduction in MCSF, % of subjects” value ([2]; 0.8 mg/kg/day, n = 40) was “(70.0%)”, the “Responder analysis ≥50% reduction in MCSF, OR vs placebo” value ([2]; 0.8 mg/kg/day, n = 40) was 29.10 and the “Responder analysis ≥50% reduction in MCSF, n of subjects” value ([2]; 0.8 mg/kg/day, n = 40) was 28. For the same compound, the “Responder analysis ≥75% reduction in MCSF, OR vs placebo” value ([2]; 0.8 mg/kg/day, n = 40) was 49.49, the “Responder analysis ≥75% reduction in MCSF, n of subjects” value ([2]; 0.8 mg/kg/day, n = 40) was 18 and the “Change in convulsive seizure frequency per 28 days, % Difference from placebo, LS mean (primary endpoint)” value ([2]; 0.8 mg/kg/day, n = 40, baseline vs titration + maintenance) was −63.89%. For the same compound, the “Near-seizure freedom (0 or a single seizure during 14-week Treatment Period), % of subjects” value ([2]; 0.8 mg/kg/day) was 25% and the “Near-seizure freedom (0 or a single seizure during 14-week Treatment Period), number of subjects” value ([2]; 0.8 mg/kg/day) was 10.
